Test results from ChEMBL document CHEMBL1139242, “Peptide deformylase inhibitors of Mycobacterium tuberculosis: synthesis, structural investigations, and biological results” (Bioorg Med Chem Lett, 2008).
Converted amounts (≈) assume the structure as drawn.

Columns and labels:
Assay type in all cases: functional
Conditions in all cases: 336 h
[1] = tested on: Mycobacterium tuberculosis; assay: Antitubercular activity against rifampicin-resistant Mycobacterium tuberculosis after 14 days by turbidimetric assay
[2] = tested on: Mycobacterium tuberculosis; assay: Antitubercular activity against pyrazinamide-resistant Mycobacterium tuberculosis after 14 days by turbidimetric assay
[3] = tested on: Mycobacterium tuberculosis; assay: Antitubercular activity against Beijing W multidrug resistant Mycobacterium tuberculosis after 14 days by turbidimetric assay
[4] = tested on: Mycobacterium tuberculosis; assay: Antitubercular activity against isoniazid-resistant Mycobacterium tuberculosis after 14 days by turbidimetric assay
[5] = tested on: Mycobacterium tuberculosis; assay: Antitubercular activity against streptomycin-resistant Mycobacterium tuberculosis after 14 days by turbidimetric assay

| SMILES | MIC [1] [µg/mL] | MIC [2] [µg/mL] | MIC [3] [µg/mL] | MIC [4] [µg/mL] | MIC [5] [µg/mL] |
| --- | --- | --- | --- | --- | --- |
| CCCC[C@H](CN(O)C=O)C(=O)N1CCC[C@H]1c1nc2ccccc2[nH]1 | 0.125 (≈ 0.349 µM) | 0.25 (≈ 0.697 µM) | 0.03 (≈ 0.0837 µM) | 0.03 (≈ 0.0837 µM) | 0.2 (≈ 0.558 µM) |
| CCCC[C@H](CN(O)C=O)C(=O)N1CCC[C@H]1c1nc2ccccc2o1 | 0.6 (≈ 1.67 µM) | 0.25 (≈ 0.696 µM) | 0.06 (≈ 0.167 µM) | 0.06 (≈ 0.167 µM) | 0.5 (≈ 1.39 µM) |
| CCCC[C@H](CN(O)C=O)C(=O)N1CCC[C@H]1C(=O)Nc1ccccn1 | 0.25 (≈ 0.69 µM) | 0.5 (≈ 1.38 µM) | 0.125 (≈ 0.345 µM) | 0.1 (≈ 0.276 µM) | 0.5 (≈ 1.38 µM) |
